Source: patent publication US20160355475A1, “NOVEL INDOLE DERIVATIVE COMPOUND AND PHARMACEUTICAL COMPOSITION COMPRISING THE SAME” (CHONG KUN DANG PHARMACEUTICAL CORP., priority 2014, published 2016)
pIC50: −log10 of the molar value.

Legend:
[1] = target: T1, HDAC1 (Homo sapiens, UniProt Q13547); assay: HDAC1 enzyme activity inhibition (HDAC1 fluorimetric drug discovery assay kit); type: biochemical; conditions: 37° C., 60 minutes; tested at 100, 1000 and 10000 nM
T1 construct: purchased Enzolifesciences BML-AK511
T1 sequence (Q13547 whole entry): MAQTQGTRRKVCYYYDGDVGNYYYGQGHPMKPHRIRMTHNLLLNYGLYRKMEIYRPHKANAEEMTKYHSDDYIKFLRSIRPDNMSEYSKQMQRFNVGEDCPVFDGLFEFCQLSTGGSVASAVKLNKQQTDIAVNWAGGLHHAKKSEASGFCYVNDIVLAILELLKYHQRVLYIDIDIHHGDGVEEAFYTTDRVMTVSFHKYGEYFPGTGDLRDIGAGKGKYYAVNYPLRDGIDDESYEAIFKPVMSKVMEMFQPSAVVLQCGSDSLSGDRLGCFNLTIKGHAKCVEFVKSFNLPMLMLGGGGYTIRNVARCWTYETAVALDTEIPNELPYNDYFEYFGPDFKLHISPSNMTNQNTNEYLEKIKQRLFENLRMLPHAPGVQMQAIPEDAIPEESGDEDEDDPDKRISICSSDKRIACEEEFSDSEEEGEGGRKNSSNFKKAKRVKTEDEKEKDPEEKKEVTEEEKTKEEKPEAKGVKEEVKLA
Protocol: (§1) 1. Experiment on Activities in HDAC Enzymes (HDAC1 and HDAC6)
(§2) Assays were performed using a HDAC1 fluorimetric drug discovery assay kit (Enzolifesciences: BML-AK511) and a HDAC6 human recombinant (Calbiochem: 382180). The assay mixture of the kit was treated with each of the compounds of the Examples at concentrations 100, 1000 and 10000 nM for HDAC1 assay and 0.1, 1, 10, 100 and 1000 nM for HDAC6 assay. The treated assay mixture was allowed to react at 37° C. for 60 minutes, and then was treated with a developer and allowed to stand at 37° C. for 30 minutes, followed by quantification of the fluorescence. In Table 17, lower HDAC6 values (μM) indicate higher HDAC6 inhibitory activities of the compounds. Also, because selective HDAC6 inhibitors should not inhibit HDAC1 (μM), higher HDAC1 values indicate higher HDAC6 selectivity of the compounds.

[2] = target: T2, HDAC6 human recombinant (Homo sapiens, UniProt Q9UBN7); assay: HDAC6 enzyme activity inhibition (fluorimetric, in vitro); type: biochemical; conditions: 37° C., 60 minutes; tested at 0.1, 1, 10, 100 and 1000 nM
T2 construct: purchased Calbiochem 382180
T2 sequence (Q9UBN7 1-1215): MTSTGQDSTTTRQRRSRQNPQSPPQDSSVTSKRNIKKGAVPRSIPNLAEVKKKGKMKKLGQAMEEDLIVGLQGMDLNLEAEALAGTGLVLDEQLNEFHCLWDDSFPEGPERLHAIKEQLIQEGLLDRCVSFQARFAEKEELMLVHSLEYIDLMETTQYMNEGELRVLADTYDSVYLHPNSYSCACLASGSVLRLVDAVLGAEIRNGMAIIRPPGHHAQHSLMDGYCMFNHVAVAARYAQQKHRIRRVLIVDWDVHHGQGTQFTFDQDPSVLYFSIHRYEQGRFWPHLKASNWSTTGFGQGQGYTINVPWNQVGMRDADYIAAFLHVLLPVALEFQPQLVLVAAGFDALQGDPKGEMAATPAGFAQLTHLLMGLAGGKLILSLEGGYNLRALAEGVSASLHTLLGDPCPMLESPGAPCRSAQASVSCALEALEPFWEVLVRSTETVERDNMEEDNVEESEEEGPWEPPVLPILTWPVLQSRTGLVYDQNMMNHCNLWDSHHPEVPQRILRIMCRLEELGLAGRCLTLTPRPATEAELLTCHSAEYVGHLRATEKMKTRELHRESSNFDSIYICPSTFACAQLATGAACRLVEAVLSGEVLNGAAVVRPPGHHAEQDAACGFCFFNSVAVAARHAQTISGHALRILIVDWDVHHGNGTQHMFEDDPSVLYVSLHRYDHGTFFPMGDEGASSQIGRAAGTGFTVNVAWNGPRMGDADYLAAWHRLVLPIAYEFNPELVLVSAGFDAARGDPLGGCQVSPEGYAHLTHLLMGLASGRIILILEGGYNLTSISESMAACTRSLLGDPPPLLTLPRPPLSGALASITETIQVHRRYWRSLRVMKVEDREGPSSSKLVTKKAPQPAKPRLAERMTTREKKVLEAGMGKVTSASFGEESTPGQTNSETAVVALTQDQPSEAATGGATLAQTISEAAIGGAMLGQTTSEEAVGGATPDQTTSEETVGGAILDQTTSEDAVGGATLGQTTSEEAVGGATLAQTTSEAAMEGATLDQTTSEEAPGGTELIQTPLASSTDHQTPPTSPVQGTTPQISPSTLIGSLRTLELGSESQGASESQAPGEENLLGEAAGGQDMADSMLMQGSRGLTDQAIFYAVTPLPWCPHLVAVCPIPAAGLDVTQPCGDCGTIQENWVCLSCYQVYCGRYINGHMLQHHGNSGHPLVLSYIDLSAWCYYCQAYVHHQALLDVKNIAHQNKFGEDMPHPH
Protocol: as §1, §2

| SMILES | pIC50 [1] | pIC50 [2] |
| --- | --- | --- |
| Cc1c(Cc2ccc(C(=O)NO)cc2)c2ccccc2n1CCN1CCOCC1 [Compound 153, N-hydroxy-4-((2-methyl-1-(2-morpholinoethyl)-1H-indol-3-yl)methyl)benzamide] | 5.36 | 6.85 |
| Cc1c(Cc2ccc(C(=O)NO)cc2)c2ccccc2n1CCN1CCN(C)CC1 [Compound 154, N-hydroxy-4-((2-methyl-1-(2-(4-methylpiperazin-1-yl)ethyl)-1H-indol-3-yl)methyl)benzamide] | 5.65 | 8.10 |
| O=C(NO)c1ccc(Cc2c(CN3CCOCC3)[nH]c3ccccc23)cc1 [Compound 155, N-hydroxy-4-((2-(morpholinomethyl)-1H-indol-3-yl)methyl)benzamide] | 5.41 | 7.62 |
| Cc1c(Cc2ccc(C(=O)NO)cc2)c2ccccc2n1CCN1CCN(C(C)C)CC1 [Compound 196, N-hydroxy-4-((1-(2-(4-isopropylpiperazin-1-yl)ethyl)-2-methyl-1H-indol-3-yl)methyl)benzamide] | 5.79 | 8.22 |
| Cc1c(Cc2ccc(C(=O)NO)cc2)c2ccccc2n1CCN1CCN(CCO)CC1 [Compound 197, N-hydroxy-4-((1-(2-(4-(2-hydroxyethyl)piperazin-1-yl)ethyl)-2-methyl-1H-indol-3-yl)methyl)benzamide] | 5.74 | 8.10 |
| COCCN1CCN(CCn2c(C)c(Cc3ccc(C(=O)NO)cc3)c3ccccc32)CC1 [Compound 198, N-hydroxy-4-((1-(2-(4-(2-methoxyethyl)piperazin-1-yl)ethyl)-2-methyl-1H-indol-3-yl)methyl)benzamide] | 5.72 | 8.30 |
| Cc1c(Cc2ccc(C(=O)NO)cc2)c2ccccc2n1CCN1CCC[C@H]1CO [Compound 199, (S)—N-hydroxy-4-((1-(2-(2-(hydroxymethyl)pyrrolidin-1-yl)ethyl)-2-methyl-1H-indol-3-yl)methyl)benzamide] | 5.90 | 8.40 |
| COC[C@@H]1CCCN1CCn1c(C)c(Cc2ccc(C(=O)NO)cc2)c2ccccc21 [Compound 200, (S)—N-hydroxy-4-((1-(2-(2-(methoxymethyl)pyrrolidin-1-yl)ethyl)-2-methyl-1H-indol-3-yl)methyl)benzamide] | 5.58 | 8.10 |
| Cc1c(Cc2ccc(C(=O)NO)cn2)c2ccccc2n1CCN1CCN(C)CC1 [Compound 243, N-hydroxy-6-((2-methyl-1-(2-(4-methylpeperazin-1-yl)ethyl)-1H-indol-3-yl)methyl)nicotinamide] |  | 6.47 |
| Cc1c(Cc2ccc(C(=O)NO)cn2)c2ccccc2n1CCN1CCOCC1 [Compound 244, N-hydroxy-6-((2-methyl-1-(2-morpholinoethyl)-1H-indol-3-yl)methyl)nocotinamide] |  | 6.63 |
| Cc1c(Cc2ccc(C(=O)NO)cc2)c2ccccc2n1CCN1CCCC(F)C1 (stereo not shown) [Compound 550, 4-((1-(2-(3-fluoropiperidin-1-yl)ethyl)-2-methyl-1H-indol-3-yl)methyl)-N-hydroxybenzamide] |  | 7.17 |
| Cc1c(Cc2ccc(C(=O)NO)cc2)c2ccccc2n1CCN1CCC[C@H]1CF [Compound 551, (S)-4-((1-(2-(2-(fluoromethyl)pyrrolidin-1-yl)ethyl)-2-methyl-1H-indol-3-yl)methyl)-N-hydroxybenzamide] |  | 7.09 |
| Cc1c(Cc2ccc(C(=O)NO)cc2)c2ccccc2n1CC1CCN(Cc2ccccc2)CC1 [Compound 556, 4-((1-((1-Benzylpiperidin-4-yl)methyl)-2-methyl-1H-indol-3-yl)methyl)-N-hydroxybenzamide] |  | 6.97 |
| Cc1c(Cc2ccc(C(=O)NO)cc2)c2ccccc2n1CC1CCN(CCc2ccccc2)CC1 [Compound 559, N-hydroxy-4-((2-methyl-1-((1-phenethylpiperidin-4-yl)methyl)-1H-indol-3-yl)methyl)benzamide] |  | 6.56 |
| Cc1c(Cc2ccc(C(=O)NO)cc2F)c2ccccc2n1CC1CCN(CC(C)(C)F)CC1 [Compound 562, 3-Fluoro-4-((1-((1-(2-fluoro-2-methylpropyl)piperidin-4-yl)methyl)-2-methyl-1H-indol-3-yl)methyl)-N-hydroxybenzamide] |  | 7.06 |
| Cc1c(Cc2ccc(C(=O)NO)cc2)c2ccccc2n1CCC1CCN(CC(C)(C)F)CC1 [Compound 563, 4-((1-(2-(1-(2-Fluoro-2-methylpropyl)piperidin-4-yl)ethyl)-2-methyl-1H-indol-3-yl)methyl)-N-hydroxybenzamide] |  | 6.51 |
| Cc1c(Cc2ccc(C(=O)NO)cc2)c2ccccc2n1CC1CCN(CC2(F)CCOCC2)CC1 [Compound 584, 4-((1-((1-((4-Fluoro-tetrahydro-2H-pyran-4-yl)methyl)piperidin-4-yl)methyl)-2-methyl-1H-indol-3-yl)methyl)-N-hydroxybenzamide] |  | 8.15 |
| CC(C)(F)CN1CCC(Cn2cc(Cc3ccc(C(=O)NO)cc3)c3ccccc32)CC1 [Compound 614, 4-((1-((1-(2-Fluoro-2-methylpropyl)piperidin-4-yl)methyl)-1H-indol-3-yl)methyl)-N-hydroxybenzamide] |  | 6.82 |
| CC(C)(F)CN1CCC(Cn2c(-c3ccccc3)c(Cc3ccc(C(=O)NO)cc3)c3ccccc32)CC1 [Compound 616, 4-((1-((1-(2-Fluoro-2-methylpropyl)piperidin-4-yl)methyl)-2-phenyl-1H-indol-3-yl)methyl)-N-hydroxybenzamide] |  | 6.09 |
| Cc1c(Cc2ccc(C(=O)NO)cc2)c2ccccc2n1CC1CCN(Cc2ccncc2)CC1 [Compound 621, N-hydroxy-4-((2-methyl-1-((1-(pyridin-4-ylmethyl)piperidin-4-yl)methyl)-1H-indol-3-yl)methyl)benzamide] |  | 7.05 |
| Cc1c(Cc2ccc(C(=O)NO)cc2)c2ccccc2n1CC1CCN(Cc2ccc(F)cc2)CC1 [Compound 622, 4-((1-((1-(4-Fluorobenzyl)piperidin-4-yl)methyl)-2-methyl-1H-indol-3-yl)methyl)-N-hydroxybenzamide] |  | 7.05 |
| CC(C)(F)CN1CCC(Cn2c(C3=CCOCC3)c(Cc3ccc(C(=O)NO)cc3)c3ccccc32)CC1 [Compound 627, 4-((2-(3,6-Dihydro-2H-pyran-4-yl)-1-((1-(2-fluoro-2-methylpropyl)piperidin-4-yl)methyl)-1H-indol-3-yl)methyl)-N-hydroxybenzamide] |  | 6.45 |
| Cc1c(Cc2ccc(C(=O)NO)cc2)c2ccccc2n1CC1CCN(CC2(F)CCN(C(=O)NC(C)C)CC2)CC1 [Compound 695, 4-Fluoro-4-((4-((3-(4-(hydroxycarbamoyl)benzyl)-2-methyl-1H-indol-1-yl)methyl)piperidin-1-yl)methyl)-N-isopropylpiperidine-1-carboxamide] |  | 7.62 |
| CC(C)(F)CN1CCC(Cn2cc(Cc3ccc(C(=O)NO)cc3)c3c(F)cccc32)CC1 [Compound 707, 4-((4-Fluoro-1-((1-(2-fluoro-2-methylpropyl)piperidin-4-yl)methyl)-1H-indol-3-yl)methyl)-N-hydroxybenzamide] |  | 6.77 |
| CC(C)(F)CN1CCC(Cn2cc(Cc3ccc(C(=O)NO)cc3)c3ccc(F)cc32)CC1 [Compound 708, 4-((6-Fluoro-1-((1-(2-fluoro-2-methylpropyl)piperidin-4-yl)methyl)-1H-indol-3-yl)methyl)-N-hydroxybenzamide] |  | 6.36 |
| Cc1c(Cc2ccc(C(=O)NO)cc2)c2ccccc2n1CC1CN(CC(C)(C)F)C1 [Compound 750, 4-((1-((1-(2-Fluoro-2-methylpropyl)azetidin-3-yl)methyl)-2-methyl-1H-indol-3-yl)methyl)-N-hydroxybenzamide] |  | 6.94 |
